According to patent US10065954B2, “Substituted imidazo[4,5-c]pyridines as SSAO inhibitors” (Proximagen Limited, priority 2014, dated 2018):

Biological target: T1, purified recombinantly expressed human SSAO (Homo sapiens, UniProt Q16853)
T1 construct: made in house
T1 sequence (Q16853 1-763): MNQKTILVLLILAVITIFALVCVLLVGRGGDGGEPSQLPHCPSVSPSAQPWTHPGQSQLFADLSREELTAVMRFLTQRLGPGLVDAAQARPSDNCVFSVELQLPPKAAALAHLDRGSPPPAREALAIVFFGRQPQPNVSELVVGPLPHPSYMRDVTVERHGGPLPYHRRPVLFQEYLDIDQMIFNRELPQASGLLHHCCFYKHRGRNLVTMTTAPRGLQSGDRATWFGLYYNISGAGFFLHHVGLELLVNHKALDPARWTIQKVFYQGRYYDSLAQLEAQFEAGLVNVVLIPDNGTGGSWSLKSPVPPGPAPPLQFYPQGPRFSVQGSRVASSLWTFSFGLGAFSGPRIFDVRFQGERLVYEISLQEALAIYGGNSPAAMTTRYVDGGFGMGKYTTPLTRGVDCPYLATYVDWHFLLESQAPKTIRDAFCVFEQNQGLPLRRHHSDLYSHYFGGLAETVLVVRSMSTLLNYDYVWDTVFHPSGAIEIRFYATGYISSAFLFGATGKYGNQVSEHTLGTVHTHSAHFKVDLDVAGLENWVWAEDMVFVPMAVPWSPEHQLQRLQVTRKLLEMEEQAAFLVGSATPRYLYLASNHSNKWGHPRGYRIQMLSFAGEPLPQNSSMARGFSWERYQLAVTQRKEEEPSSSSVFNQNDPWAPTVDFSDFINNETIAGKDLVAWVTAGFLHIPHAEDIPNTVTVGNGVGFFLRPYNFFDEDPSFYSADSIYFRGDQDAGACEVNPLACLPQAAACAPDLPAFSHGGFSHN
Assay: SSAO enzyme inhibition assay (benzylamine substrate; hydrogen peroxide/HRP-coupled or 14C-aldehyde detection)
Format: biochemical
Conditions: SSAO inhibitory activity; recombinant human SSAO, RT
Procedure: All primary assays were performed at RT. with purified recombinantly expressed human SSAO. Enzyme was prepared essentially as described in Öhman et al. (Protein Expression and Purification 46 (2006) 321-331). In addition, secondary- and selectivity assays were performed using SSAO prepared from various tissues or purified rat recombinant SSAO. The enzyme activity was assayed with benzylamine as substrate by measuring either benzaldehyde production, using ^14C-labeled substrate, or by utilizing the production of hydrogen peroxide in a horseradish peroxidase (HRP) coupled reaction. Briefly, test compounds were dissolved in dimethyl sulfoxide (DMSO) to a concentration of 10 mM. Dose-response measurements were assayed by either creating 1:10 serial dilutions in DMSO to produce a 7 point curve or by making 1:3 serial dilutions in DMSO to produce 11 point curves. The top concentrations were adjusted depending on the potency of the compounds and subsequent dilution in reaction buffer yielded a final DMSO concentration ≤2%.
In a horseradish peroxidase (HRP) coupled reaction, hydrogen peroxide oxidation of 10-acetyl-3,7-dihydroxyphenoxazine produced resorufin, which is a highly fluorescent compound (Zhout and Panchuk-Voloshina. Analytical Biochemistry 253 (1997) 169-174; Amplex® Red Hydrogen Peroxide/peroxidase Assay kit, Invitrogen A22188). Enzyme and compounds in 50 mM sodium phosphate, pH 7.4 were set to pre-incubate in flat-bottomed microtiter plates for approximately 15 min before initiating the reaction by addition of a mixture of HRP, benzylamine and Amplex reagent. Benzylamine concentration was fixed at a concentration corresponding to the Michaelis constant, determined using standard procedures. Fluorescence intensity was then measured at several time points during 1-2 h, exciting at 544 nm and reading the emission at 590 nm. For the human SSAO assay final concentrations of the reagents in the assay wells were: SSAO enzyme 1 ug/mL, benzylamine 100 uM, Amplex reagent 20 uM, HRP 0.1 U/mL and varying concentrations of test compound. The inhibition was measured as % decrease of the signal compared to a control without inhibitor (only diluted DMSO). The background signal from a sample containing no SSAO enzyme was subtracted from all data points. Data was fitted to a four parameter logistic model and IC50 values were calculated using the GraphPad Prism 4 or XLfit 4 programs.
SSAO activity was assayed using […] benzylamine and analysed by measuring radioactive benzaldehyde. In a white 96-well optiplate (Packard), 20 uL of diluted test compound was pre-incubated at RT with 20 uL SSAO enzyme for approximately 15 min with continuous agitation. All dilutions were made with PBS. The reaction was initiated by adding 20 uL of the benzylamine substrate solution containing Benzylamine hydrochloride (CFA589, GE Healthcare). The plate was incubated for 1 h as above after which the reaction was stopped by acidification (10 uL 1M aq HCl). Then 90 uL Micro Scint-E solution (Perkin-Elmer) was added to each well and the plate was continuously mixed for 15 min. Phase separation occurred instantly and activity was read in a Topcount scintillation counter (Perkin-Elmer). In the final reaction well, the human recombinant SSAO concentration was 10 ug/mL. In order to optimize sensitivity, the substrate concentration was decreased as compared to the HRP coupled assay in order to get a higher fraction of radioactive product. In the human SSAO assay, benzylamine concentration was 40 uM (0.2uCi/mL). Data was analysed as above.

Row | Compound | IC50
1 | Cc1cc(N2CCOCC2)ncc1-c1nc2ccncc2n1-c1ccc(F)cc1F [Compound 2, 4-{5-[3-(2,4-Difluorophenyl)-3H-imidazo[4,5-c]pyridin-2-yl]-4-methylpyridin-2-yl}morpholine] | < 50 nM
2 | CCN(CC)c1ncc(-c2nc3ccncc3n2-c2ccc(F)cc2)cn1 [Compound 5, N,N-Diethyl-5-[3-(4-fluorophenyl)-3H-imidazo[4,5-c]pyridin-2-yl]pyrimidin-2-amine] | < 50 nM
3 | CCN(CC)c1ncc(-c2nc3ccncc3n2-c2ccc(C)cc2)cn1 [Compound 6, N,N-Diethyl-5-[3-(4-methylphenyl)-3H-imidazo[4,5-c]pyridin-2-yl]pyrimidin-2-amine] | < 50 nM
4 | Cc1ccc(-n2c(-c3cnc(N4CCOCC4)cc3C)nc3ccncc32)c(F)c1 [Compound 8, 4-{5-[3-(2-Fluoro-4-methylphenyl)-3H-imidazo[4,5-c]pyridin-2-yl]-4-methylpyridin-2-yl}morpholine] | < 50 nM
5 | Cc1ccc(-n2c(-c3ccc(N4CCC(F)(F)CC4)nc3)nc3ccncc32)cc1 [Compound 11, 2-(4,4-Difluoropiperidin-1-yl)-5-[3-(4-methylphenyl)-3H-imidazo[4,5-c]pyridin-2-yl]pyridine] | < 50 nM
6 | Cc1ccc(-n2c(-c3cnc(N4CCOCC4)cc3C)nc3ccncc32)nc1 [Compound 13, 4-{4-Methyl-5-[3-(5-methylpyridin-2-yl)-3H-imidazo[4,5-c]pyridin-2-yl]pyridin-2-yl}morpholine] | 50 to 200 nM
7 | Cc1cc(N2CCOCC2)ncc1-c1nc2ccncc2n1-c1ccc(F)cn1 [Compound 14, 4-{5-[3-(5-Fluoropyridin-2-yl)-3H-imidazo[4,5-c]pyridin-2-yl]-4-methylpyridin-2-yl}morpholine; tris(trifluoroacetic acid)] | 200 to 1200 nM
8 | Fc1ccc(-n2c(-c3ccc(N4CCSCC4)nc3)nc3ccncc32)cc1 [Compound 16, 4-{5-[3-(4-Fluorophenyl)-3H-imidazo[4,5-c]pyridin-2-yl]pyridin-2-yl}thiomorpholine] | < 50 nM
9 | Fc1ccc(-n2c(-c3ccc(NC4CC4)nc3)nc3ccncc32)cc1 [Compound 22, N-Cyclopropyl-5-[3-(4-fluorophenyl)-3H-imidazo[4,5-c]pyridin-2-yl]pyridin-2-amine] | < 50 nM
10 | Cc1ccc(-n2c(-c3ccc(NC4CC4)nc3)nc3ccncc32)cn1 [Compound 23, N-Cyclopropyl-5-[3-(6-methylpyridin-3-yl)-3H-imidazo[4,5-c]pyridin-2-yl]pyridin-2-amine] | 200 to 1200 nM

Further lines, results first:

Row | IC50 | Compound
11 | 50 to 200 nM | Fc1ccc(-n2c(-c3ccc(N4CCOCC4)nc3)nc3ccncc32)nc1 [Compound 1, 4-{5-[3-(5-Fluoropyridin-2-yl)-3H-imidazo[4,5-c]pyridin-2-yl]pyridin-2-yl}morpholine]
12 | 50 to 200 nM | Fc1ccc(-n2c(-c3cnc(NC4CCOCC4)nc3)nc3ccncc32)c(F)c1 [Compound 3, 5-[3-(2,4-Difluorophenyl)-3H-imidazo[4,5-c]pyridin-2-yl]-N-(oxan-4-yl)pyrimidin-2-amine]
13 | 50 to 200 nM | CCN(CC)c1ncc(-c2nc3ccncc3n2-c2ccc(C)nc2)cn1 [Compound 4, N,N-Diethyl-5-[3-(6-methylpyridin-3-yl)-3H-imidazo[4,5-c]pyridin-2-yl]pyrimidin-2-amine]
14 | 50 to 200 nM | CCN(CC)c1ncc(-c2nc3ccncc3n2-c2ccc(C)cn2)cn1 [Compound 7, N,N-Diethyl-5-[3-(5-methylpyridin-2-yl)-3H-imidazo[4,5-c]pyridin-2-yl]pyrimidin-2-amine]
15 | < 50 nM | Cc1cc(N2CCOCC2)ncc1-c1nc2ccncc2n1-c1ccc(Cl)cc1 [Compound 9, 4-{5-[3-(4-Chlorophenyl)-3H-imidazo[4,5-c]pyridin-2-yl]-4-methylpyridin-2-yl}morpholine]
16 | < 50 nM | Fc1ccc(-n2c(-c3ccc(NCCN4CCOCC4)nc3)nc3ccncc32)cc1 [Compound 20, 5-[3-(4-Fluorophenyl)-3H-imidazo[4,5-c]pyridin-2-yl]-N-[2-(morpholin-4-yl)ethyl]pyridin-2-amine]
